The values that follow are results of earlier work, collected in the CATMoS acute toxicity set (Mansouri et al. 2021).

SMILES strings stand for the structures. Several values for one entry are separate records, joined by “and”; a condition that tells them apart may be missing. Equal values may be shown once.

This series in a line: rat acute oral toxicity. The following applies: in vivo.
What is called LD50 is the dose at which mortality reaches 50%. Regarding `CCOP(=S)(OCC)Oc1ccc([N+](=O)[O-])c(Cl)c1`, the LD50 is 50 mg/kg.

For the compound `Oc1c(Cl)cc(Cl)c(Cl)c1Cc1c(O)c(Cl)cc(Cl)c1Cl`, the LD50 is 59.2 mg/kg.

As for `CCCCNc1ccc2c(c1)C(=O)N(CCN(CC)CC)C2=O`, the 50% lethal dose (LD50) was 580 mg/kg.

In the case of `C[N+](C)([O-])c1ccc(N=Nc2ccccc2)cc1`, the LD50 was 2200 mg/kg.

As for `CCNC(C)c1ccccc1` (stereo not drawn), the LD50 is 360 mg/kg.

Regarding `OCCSSCCO`, the LD50 is 173 mg/kg.

For the compound `CCCN(CCC)S(=O)(=O)c1ccc(C(=O)O)cc1`, the LD50 is 1600 mg/kg.

On to `NCCN1CCOCC1`, for which the LD50 is 3000 mg/kg.

As for `O=C(c1cc(O)c(O)c(O)c1)c1ccc(O)c(O)c1O`, the LD50 was 1420 mg/kg.

With `FC(F)(F)c1ccccc1`, the LD50 was 15000 mg/kg.

Regarding `C=CCOc1ccccc1C(=O)N(CC)CC`, the LD50 is 325 mg/kg.

For `Cc1cccc(Nc2ccccc2C(=O)O)c1C`, the LD50 is 740 mg/kg.

With `CC(C)c1cc([N+](=O)[O-])cc([N+](=O)[O-])c1O`, the LD50 is 63 mg/kg.

As for `CC1(C)C2CCC1(C)C(Oc1ccc(N)cc1)C2` (stereo not drawn), the LD50 is 660 mg/kg.

As for `CCOc1ccccc1N1CCN(CC=Cc2ccc3c(c2)CCC(=O)N3)CC1`, the LD50 was 500 mg/kg.

Turning to `CCC(=O)OCCOc1ccccc1`, the LD50 was 4400 mg/kg.

As for `CC1=CCC2CC(CC3(CCC(C)C(C(C)C)O3)O2)OC(=O)C2C=C(C)C(O)C3OCC(=CC=CC(C)C1)C23O` (stereo not drawn), the LD50 was 2470 mg/kg.

Turning to `Nc1ccc(OCCO)c(N)c1`, the LD50 is 1000 mg/kg.

On to `CCCCCOC(CBr)c1ccc(C2CCCCC2)cc1` (stereo not drawn), for which the LD50 was 250 mg/kg.

Turning to `CCO[Si](C)(C)CCl`, the LD50 is 1550 mg/kg.

With `N#CCCCCCN`, the LD50 is 820 mg/kg.

Regarding `[N-]=[N+]=NC1CCCCC1=NO` (stereo not drawn), the LD50 was 1120 mg/kg.

With `CC(=O)Oc1c(C)ncc2c1COC(C(C)C)OC2` (stereo not drawn), the LD50 was 2850 mg/kg.

With `CCC(C)OCCO` (stereo not drawn), the LD50 was 790 mg/kg.

As for `CC1N(c2ccccc2)C(=O)c2ccccc2N1C(=O)CN1CCOCC1` (stereo not drawn), the median lethal dose (LD50) is 1710 mg/kg.

`CCCCCCCCCCCC[N+](C)(C)Cc1ccccc1`: the LD50 is 400 mg/kg and 230 mg/kg.

Consider `CCCCCCCCCCCCCCOCCOCCOCCOCCOCCOCCOCCO`, for which the median lethal dose (LD50) is 2600 mg/kg.

Consider `CC(Cl)(Cl)C(=O)O`, for which the LD50 was 3860 mg/kg.

Regarding `CCC(CC)C(=O)OCC(Cl)(Cl)Cl`, the LD50 is 900 mg/kg.

As to `C#CCBr`, the LD50 is 53 mg/kg.

On to `COC(C)N(C)N=O` (stereo not drawn), for which the LD50 was 240 mg/kg.

In the case of `Nc1cc(S(=O)(=O)O)cc2c1C(=O)C(=NNc1ccc(NN=C3C(=O)c4c(O)cc(S(=O)(=O)O)cc4C=C3S(=O)(=O)O)cc1)C(S(=O)(=O)O)=C2`, the LD50 was 12000 mg/kg.

Take `CN1CCN(CC(=O)N/N=C/c2ccc([N+](=O)[O-])o2)CC1`: the LD50 was 990 mg/kg and 960 mg/kg and 833 mg/kg.

Consider `CCCCCCCCC[N+]1(C)[C@H]2CC(OC(=O)C(CO)c3ccccc3)C[C@H]1[C@H]1O[C@H]12` (stereo partly drawn), for which the LD50 is 1300 mg/kg.

In the case of `Cl[Si](Cl)(Cl)c1ccccc1`, the LD50 is 2390 mg/kg.

As to `C=C(C)c1ccccc1`, the LD50 is 4900 mg/kg.

As to `CCc1cc(CC)cc(OC(=O)NC)c1`, the LD50 is 1600 mg/kg.

Consider `CCSc1nnc(C(C)(C)C)c(=O)n1N`, for which the LD50 is 599 mg/kg.

Regarding `COc1cc(OC)cc(OCC(O)CO)c1` (stereo not drawn), the 50% lethal dose (LD50) is 2100 mg/kg.

Take `CCOP(=S)(OC(C)C)Sc1nc(C)cc(C)n1` (stereo not drawn): the LD50 is 68 mg/kg.

Turning to `CCN(CC)CCOC(=O)c1ccc(NCc2c(CO)cnc(C)c2O)cc1`, the LD50 is 5900 mg/kg.

Turning to `CCC(CC)c1cccc(OC(=O)NC)c1`, the LD50 is 87 mg/kg.

Turning to `O=c1[nH]c(=O)n([C@H]2C[C@H](O)[C@@H](CO)O2)cc1F`, the LD50 is 215 mg/kg.

Consider `NC(=S)Nc1ccccc1Cl`, for which the LD50 was 4.6 mg/kg.

In the case of `CC(Cl)=CC(=O)Nc1ccc(O)cc1`, the LD50 is 1580 mg/kg.

Turning to `Cc1nc(N)nc(N)c1-c1ccc(Br)cc1`, the LD50 was 250 mg/kg.

Turning to `CCOP(=S)(OCC)SCS(=O)(=O)CC`, the LD50 was 1.2 mg/kg.

Take `CC(=O)CCCCCCCC(=O)O`: the LD50 is 3100 mg/kg.

For `CCC(C)=CCCC(C)=CC#N`, the LD50 is 2600 mg/kg.

`CCCCOC(=O)[C@@H](C)Oc1ccc(Oc2ccc(C(F)(F)F)cn2)cc1`: the LD50 is 2710 mg/kg.

For the compound `CC(C)COC(=O)CCc1ccco1`, the LD50 is 1950 mg/kg.

Consider `CCC(CO)(CO)CO`, for which the LD50 was 14100 mg/kg.

Take `c1ccc(CC2=NCCN2)cc1`: the LD50 was 1200 mg/kg.

Consider `CC1(NC(N)=O)CCCCC1`, for which the LD50 is 1040 mg/kg.

`CC(Cc1ccccc1)NC(C#N)c1ccccc1` (stereo not drawn): the LD50 is 37.6 mg/kg.

As for `CCS(=O)(=O)Oc1ccc2c(c1)C(C)(C)CO2`, the LD50 was 2030 mg/kg.

Turning to `CN1CC[C@]23c4c5ccc(O)c4O[C@H]2[C@H](N=[N+]=[N-])CC[C@H]3[C@H]1C5`, the LD50 was 62 mg/kg.

As for `CCOP(=S)(OCC)Oc1nc(Cl)n(C(C)C)n1`, the LD50 is 27 mg/kg.

With `CCCC[N+](CCCC)(CCCC)CCCC`, the LD50 is 1990 mg/kg.

In the case of `CCOP(=S)(NC(C)CC)Oc1cc(C)ccc1[N+](=O)[O-]` (stereo not drawn), the LD50 was 630 mg/kg.

As to `ON=CC(O)(C#Cc1ccccc1)c1ccccc1` (stereo not drawn), the LD50 was 8750 mg/kg.

As to `C=CCNC(N)=S`, the LD50 was 200 mg/kg.

Turning to `CCC(OC(C)=O)C(CC(C)NC)(c1ccccc1)c1ccccc1` (stereo not drawn), the LD50 was 44 mg/kg.
